Test results as given in US20070082952A1, “Pharmaceutical compositions, methods of preparation thereof, and methods of treatment” (priority 2005, published 2007).

Tests used:
aqueous solubility = type: physicochemical
Description: An obstacle to the use of 3-biphenyl-4-yl-(2S)-[(4′-trifluoromethyl-biphenyl-4-carbonyl)-amino]-propionic acid in certain pharmacological forms is its aqueous solubility (less than 0.5 micrograms/milliliter (μg/mL)), which may make the bioavailability of biphenyl-4-yl-(2S)-[(4′-trifluoromethyl-biphenyl-4-carbonyl)-amino]-propionic acid lower than desirable. A composition of the present invention, having an increased dissolution rate, advantageously enhances the bioavailability of 3-biphenyl-4-yl-(2S)-[(4′-trifluoromethyl-biphenyl-4-carbonyl)-amino]-propionic acid, particularly when dosed orally.

[1] = Dissolution, USP method 2 (paddles at 75 rpm, 0.025 M NaH2PO4 with 2% SDS, pH 6.8); type: physicochemical; conditions: 2×100 mg, pH 6.8, paddles 75 rpm
Procedure: Dissolution of the wet granulation tablets of Example 1 and the dry formulation capsules of Example 2 was determined using USP method 2 (paddles at 75 rpm, 0.025 M NaH2PO4 with 2% sodium dodecyl sulfate (SDS), pH 6.8).

With `O=C(N[C@@H](Cc1ccc(-c2ccccc2)cc1)C(=O)O)c1ccc(-c2ccc(C(F)(F)F)cc2)cc1` [3-biphenyl-4-yl-(2S)-[(4′-trifluoromethyl-biphenyl-4-carbonyl)-amino]-propionic acid] the aqueous solubility (aqueous solubility) was “less than 0.5 μg/mL”, the “Percent 3-Biphenyl-4-yl-(2S)-[(4′-trifluoromethyl-biphenyl-4-carbonyl)-amino]-propionic acid Dissolved” value ([1]; Time 0 min) was 0% and the “Percent 3-Biphenyl-4-yl-(2S)-[(4′-trifluoromethyl-biphenyl-4-carbonyl)-amino]-propionic acid Dissolved” value ([1]; Time 15 min) was 43.2%. The “Percent 3-Biphenyl-4-yl-(2S)-[(4′-trifluoromethyl-biphenyl-4-carbonyl)-amino]-propionic acid Dissolved” value ([1]; Time 30 min) was 57.0%, the “Percent 3-Biphenyl-4-yl-(2S)-[(4′-trifluoromethyl-biphenyl-4-carbonyl)-amino]-propionic acid Dissolved” value ([1]; Time 45 min) was 67.3% and the “Percent 3-Biphenyl-4-yl-(2S)-[(4′-trifluoromethyl-biphenyl-4-carbonyl)-amino]-propionic acid Dissolved” value ([1]; Time 60 min) was 73.9%.
